Reference: patent US20040022667A1 (priority 2001, published 2004)

How the values were obtained:
[1] = 20° C.; cited from earlier work
[2] = system: anthrax spores; type: cell-based, Bacillus anthracis; details: ~50 ppm (approx. 50 mg/liter) pure ClO2 in water

## O=O [oxygen]
[1]
  solubility per liter of water: 9.2 mg

## Chlorine dioxide
[2]
  time to substantially destroy anthrax spores: less than 1 min
